Assay results published in patent US12721894B2, “Method and system for applying pulsed electric fields with high uniformity using charged ring structures” (The Phantom Laboratory, Incorporated, priority 2020, dated 2026).

Key:
[1] = test system: 4T1 murine breast cancer cells; test: Ectopic 4T1 homografts in BALBc mice: tumor size and survival after TOL; format: in vivo, mouse; details: paclitaxel 20 mg/kg i.p. post-inoculation day 5; TOL: digoxin 3 mg/kg x8 + 4x30 min PEF 18 V/m on 2 successive days; n=12; FIG. 7
Method: FIG. 4 illustrates the average size of 4T1 homographs seen before and after each single treatment with TOL in which the duration of each of four exposures to PEFs of 18 V/m varied from 5-60 minutes (n=15). […] Further increase in stimulation duration had less of an effect on tumor reduction. Optimum tumor reduction is observed when the mice are exposed to a PEF for 30 minutes, or a range of exceeding 15 minutes and less than 60 minutes.
FIG. 6 depicts in vivo validation of the therapeutic efficacy of pulsed electric fields (PEFs) inducing osmotic lysis in a breast cancer mouse model. Ectopic homografts of 4T1 murine breast cancer cells were established in female, immune competent BALBc mice (n=12). The “TOL” group was injected with digoxin (7 mg/kg) and then exposed to the PEFs generated by a ring device. […] Tumor size was measured daily, beginning on Day 0 (first day of treatment) and every other day after Day 3 until NIH humane endpoint criteria were met for euthanasia.
FIG. 7 depicts in vivo validation of the therapeutic efficacy of pulsed electric fields (PEFs) inducing osmotic lysis in comparison to paclitaxel in a breast cancer mouse model. […] Homografts were measured on post-inoculation day 6 (treatment day 0), and again on post-treatment days 1 and 2 and then every other day until the criteria for humane endpoint euthanasia was met. […]

[2] = test system: voltage gated sodium channel (VGSC); test: Immunohistochemical labeling of VGSC in 4T1 homografts; format: in vivo, mouse; details: 1 and 2 days after treating with paclitaxel; FIG. 8
Text: FIGS. 5A-5C depict the immunohistochemical labeling of voltage gated sodium channel (VGSC) in 4T1 homografts before (FIG. 5A) and after (FIG. 5B) a single 2-day treatment with TOL. Nuclei are counterstained with DRAQ5™ fluorescent probe. […] Low power calibration bar in FIG. 5B is 50 μm and the high power calibration bar in the inset is 25 μm. […] This observation may explain, in part the loss of TOL's efficacy that is observed after the first 2 days of treatment.
FIGS. 8A-8D depicts the immunohistochemical labeling of VGSC in 4T1 homografts before (FIG. 8A), 1 (FIG. 8B) and 2 days (FIG. 8C) after treating with paclitaxel. Nuclei are counterstained with DRAQ5. […] Low power calibration bar in FIG. 8B is 50 μm and the high power calibration bar in the inset in FIG. 8C is 25 μm. […] It is noted that there is a progressive reduction of VGSC labeling but not in the number of cells that express the highest levels of VGSC. […] The decrease in expression of VGSC is likely to contribute in the reduced efficacy of TOL when used concurrently with paclitaxel.

CC(=O)O[C@H]1C(=O)[C@@]2(C)[C@H]([C@H](OC(=O)c3ccccc3)[C@]3(O)C[C@H](OC(=O)[C@H](O)[C@@H](NC(=O)c4ccccc4)c4ccccc4)C(C)=C1C3(C)C)[C@]1(OC(C)=O)CO[C@@H]1C[C@@H]2O [paclitaxel]
time from inoculation to humane endpoint euthanasia (survival) [1]: no significant effect on survival over controls | VGSC expression [2]: decreases significantly and progressively
